Experiments:
[1] = Chronic toxicity: peritheric blood and internals, 30 days, guinea pigs; type: in vivo; details: once daily for 30 days
Experimental: II.1 The H-Ile-Glu-Trp-OH effect on the composition and properties of the peritheric blood, the morphological state of the internals.
The drug was injected once daily for 30 days.
The test animals were 20 rabbits and 40 guinea pigs.

[2] = Effect on cardio-vascular and respiratory systems, guinea pigs; type: in vivo
Experimental: The effects of H-Ile-Glu-Trp-OH on ECG and arterial pressure were studied in guinea pigs and cats.
The test was conducted in 20 guinea pigs.

Acute toxicity in mice = type: in vivo
Experimental: An acute toxicity study of the peptide was carried out in compliance with methodical recommendations of the Pharmacological Committee of the Russian Federation (RF), "Requirements to Preclinical Study of General Toxic Action of New Pharmacological Substances", M., 1985.
To establish the safety of use of the peptides, toxicity tests were performed. Toxicity tests where performed in accordance Pharmacological Committee Russian Federation (RF) "guidelines for the pre-clinical study of general toxic activity of new pharmacological compounds". M., 1985.
Acute toxicity was studied in 120 mice (60 males, 60 females). Ld50 was not reached with the dose 10000 times as high as the therapeutic one. The preferred therapeutic dose is 0.001-0.1 mg/kg.

[3] = Chronic toxicity, general state and pathomorphologic investigation; type: in vivo
Description: The general state of the animals, behaviour, motor function, cardio-vascular, respiratory activity, liver and kidney functions were within the range of physiologic fluctuations.

Effect on liver function = type: in vivo, rabbits; details: 0.01% solution for 30 days
Experimental: The tests were performed in 20 rabbits, who received injections of 0.01% H-Ile-Glu-Trp-OH solution for 30 days.

hemoglobin, erythrocytes = assay: Erythropoiesis in irradiated mice (4 Gy); type: in vivo; details: for Hemoglobin Content in blood: 4 Gy
Description: The effect of the peptide on erythropoiesis in irradiated mice (4 Gy) was also studied. The mice were irradiated and treated with the peptide as in Example 7.

Antibody Forming Cells = Antibody Forming Cells count (Jerne) in spleen after immunization with sheep erythrocytes; type: in vivo, (CBA×C57BL)F1 mice
Experimental: Females and male (CBA×C57BL)F1 mice, aged about 2.5 months weighing about 20 g, were irradiated with gamma-rays using a "Luch-1" apparatus. Immunological activity was assessed according to Jerne (Antibody Forming Cells count--AFC). T-cell count in spleen was determined by the method of spontaneous rosette formation with sheep erythrocytes (E-FRC). The peptide was injected intramuscularly.
Mice were irradiated in a dose of 2 Gy, the peptide was injected in the dose of 10 μg/kg according to the following scheme (to determine T-cell count by the method of spontaneous rosette formation): 1 time--an hour after the irradiation; 2 times--an hour, and a day after irradiation; 3 times--an hour, a day, and two days after the irradiation; 4 times--an hour, a day, two days and three days after the irradiation. The intact mice recieved the peptide 3 or 4 times. The control group (2 Gy) recieved injections of physiological solution according to the same schedule. On completion of the treatment course, 10 mice from each group were immunized with sheep erythrocytes (SE) and 4-5 days later AFC counts were determined in their spleens. The rest of the mice were used to find T-cell count by the method of spontaneous rosette formation. The state of the organs of immune system (spleen and thymus) in mice with radiation immunodeficiency against the background of H-Ile-Glu-Trp-OH treatment was also listed by nucleated cell counts in thymus and spleen per mg of organ weight. AFC/mg Spleen weight is presented as an average of two experiments.

[4] = Observation during study of specific and general pharmacological activity; type: in vivo, mice, guinea pigs, rats, rabbits; details: during the study and 1-6 month observation period
Experimental: In the study of specific and general pharmacological activity, the test animals were mice, guinea pigs, rats, rabbits. Some tests were performed using lymphocyte or monocyte cultures of the peritheric blood of donors and patients with different diseases accompanied by immunity disorders.

Allergenicity study = type: in vivo, rabbits; details: subcutaneous 0.01% solution for 5 days
Experimental: The study was performed in 12 rabbits, who received subcutaneous injections of 0.01% H-Ile-Glu-Trp-OH solution for 5 days. The control animals were injected with horse serum.

[5] = test system: mixed lymphocyte culture (H-2d anti H-2b); assay: Proliferation of mixed lymphocyte culture (MLC), 3H-thymidine; type: cell-based
Experimental: This experimental system is an in vitro the analog of the Graft Versus Host Disease reaction.
In the present series of experiments the reaction H-2d, anti H-2b was examined. The new combination responder-stimulator. Each variant was made in a triplet. Microcultures were incubated for 4 days, then 3H-thymidine was added; then the mixture was incubated for 16 more hours, and after its transfer to the filters, the amount of 3H-thymidine was determined. H-Ile-Glu-Trp-OH was added at the beginning of the incubation in different concentrations.

CFU-S = assay: Reconstitution of CFU-S and nucleated cells in irradiated mice (4 Gy), i.v. versus i.m.; type: in vivo
Experimental: A further study of the effect of the peptide, using different methods of administration, on the dynamics of reconstitution of CFU-S, Nucleated blood Cells (NC) in the femoral bone marrow and peritheric blood (mm) of irradiated mice (4 Gy) was conducted.
Donor mice were irradiated with γ-rays in the dose of 4 Gy. Then they received the petide i.v. or i.m. 1, 2, 3, or 4 times, once a day, starting from the 1 first hour of the 3rd day after the irradiation (10 μg/kg per injection). […] At different intervals after the irradiation 10 mice were taken from each group to determine CFU-S in the bone marrow. The mice were killed, cell suspensions were prepared from the bone marrow and injected to lethally irradiated recipients. NC were counted in the femoral bone marrow and peritheric blood, and the lymphocyte percentage was found.

With H-Ile-Glu-Trp-OH as the substance, how does the “pathologic changes in the body or peritheric blood” value [1] read?
Its value is “did not cause any pathologic changes”.

And the “ECG readings and arterial pressure” value [2]?
Its value is “No significant difference from control”.

And the Ld50 (Acute toxicity in mice; 120 mice)?
Its Ld50 is > 10000 times as high as the therapeutic one.

What about the acute toxic effect (Acute toxicity in mice; intraperitoneal injection of a 10,000-fold dose) of the same substance?
The acute toxic effect was “did not cause an acute toxic effect”.

And the “pathomorphologic investigation (with histologic investigation of organs)” value ([3]; chronic toxicity)?
The value was “failed to find any pathologic processes”.

And the side effects ([3]; doses 10-100 times as large as the therapeutic ones)?
Its side effects is “no side effects were observed”.

What about the liver function (Effect on liver function) of the same substance?
Its liver function is “not to have any toxic effect on the liver function”.

What about the “Erythrocyte counts, test versus control groups” value (hemoglobin, erythrocytes; 4 Gy mice) of the same substance?
The value was “did not differ”.

What about the “restoration of hemoglobin level” value (hemoglobin, erythrocytes; 4 Gy treated mice (control: by day 14)) of the same substance?
The value was “become normal by the 11th day”.

And the “Hemoglobin Content in blood” value (hemoglobin, erythrocytes; scheme 2, 1 Time, Day 7)?
The value was 9.4 ± 0.8 r/dl.

And the “Hemoglobin Content in blood” value (hemoglobin, erythrocytes; scheme 2, 1 Time, Day 11)?
The value was 12.6 ± 0.1 r/dl.

And the “Hemoglobin Content in blood” value (hemoglobin, erythrocytes; scheme 2, 1 Time, Day 14)?
Its value is 11.8 ± 0.5 r/dl.

What about the “Hemoglobin Content in blood” value (hemoglobin, erythrocytes; scheme 2, 1 Time, Day 18) of the same substance?
Its value is 12.1 ± 0.1 r/dl.

What about the “Hemoglobin Content in blood” value (hemoglobin, erythrocytes; scheme 2, 1 Time, Day 21) of the same substance?
Its value is 12.1 ± 0.4 r/dl.

What about the “Hemoglobin Content in blood” value (hemoglobin, erythrocytes; scheme 2, 2 Times, Day 7) of the same substance?
Its value is 9.6 ± 0.4 r/dl.

What about the “Hemoglobin Content in blood” value (hemoglobin, erythrocytes; scheme 2, 2 Times, Day 11) of the same substance?
The value was 12.0 ± 0.1 r/dl.

And the “Hemoglobin Content in blood” value (hemoglobin, erythrocytes; scheme 2, 2 Times, Day 14)?
The value was 10.8 ± 0.8 r/dl.

And the “Hemoglobin Content in blood” value (hemoglobin, erythrocytes; scheme 2, 2 Times, Day 18)?
Its value is 11.5 ± 0.6 r/dl.

And the “Hemoglobin Content in blood” value (hemoglobin, erythrocytes; scheme 2, 2 Times, Day 21)?
The value was 11.7 ± 0.6 r/dl.

What about the “Hemoglobin Content in blood” value (hemoglobin, erythrocytes; scheme 2, 3 Times, Day 7) of the same substance?
Its value is 10.15 ± 0.8 r/dl.

What about the “Hemoglobin Content in blood” value (hemoglobin, erythrocytes; scheme 2, 3 Times, Day 11) of the same substance?
The value was 11.9 ± 0.4 r/dl.

And the “Hemoglobin Content in blood” value (hemoglobin, erythrocytes; scheme 2, 3 Times, Day 14)?
The value was 12.1 ± 0.2 r/dl.

And the “Hemoglobin Content in blood” value (hemoglobin, erythrocytes; scheme 2, 3 Times, Day 18)?
Its value is 11.7 ± 0.2 r/dl.

What about the “Hemoglobin Content in blood” value (hemoglobin, erythrocytes; scheme 2, 3 Times, Day 21) of the same substance?
The value was 11.9 ± 0.3 r/dl.

And the “Hemoglobin Content in blood” value (hemoglobin, erythrocytes; scheme 2, 4 Times, Day 7)?
Its value is 14.4 ± 0.9 r/dl.

What about the “Hemoglobin Content in blood” value (hemoglobin, erythrocytes; scheme 2, 4 Times, Day 11) of the same substance?
Its value is 12.2 ± 0.1 r/dl.

What about the “Hemoglobin Content in blood” value (hemoglobin, erythrocytes; scheme 2, 4 Times, Day 14) of the same substance?
The value was 12.0 ± 0.2 r/dl.

What about the “Hemoglobin Content in blood” value (hemoglobin, erythrocytes; scheme 2, 4 Times, Day 18) of the same substance?
The value was 11.7 ± 0.4 r/dl.

What about the “Hemoglobin Content in blood” value (hemoglobin, erythrocytes; scheme 2, 4 Times, Day 21) of the same substance?
Its value is 12.0 ± 0.6 r/dl.

What about the “AFC/mg Spleen” value (Antibody Forming Cells; 2 Gy, 10 μg/kg i.m., 3 Injection) of the same substance?
The value was 152.4 ± 4.1.

What about the “AFC/mg Spleen” value (Antibody Forming Cells; 2 Gy, 10 μg/kg i.m., 4 Injection) of the same substance?
Its value is 158.1 ± 7.1.

And the “AFC/mg Spleen” value (Antibody Forming Cells; intact mice, 3 Injections)?
The value was 621.1 ± 14.2.

What about the “AFC/mg Spleen” value (Antibody Forming Cells; intact mice, 4 Injections) of the same substance?
The value was 676.1 ± 47.5.

What about the AFC increase (Antibody Forming Cells; intact mice, humoral response to SE) of the same substance?
The AFC increase was 5 times.

What about the “number of antibody forming cells” value (Antibody Forming Cells; irradiated mice, 3 and 4 injections) of the same substance?
The value was “practically doubled”.

And the “toxic or allergic reactions” value [4]?
Its value is “no toxic or allergic reactions were observed”.

And the “reaction on the injection sites” value (Allergenicity study)?
The value was “No macroscopic reaction”.

What about the “proliferation of the allogenic lymphocytes” value ([5]; 0.1 μg/ml (FIG. 4)) of the same substance?
The value was “negligible inhibition of the proliferation”.

And the “proliferation of the allogenic lymphocytes” value ([5]; 1, 10, and 20 μg/ml (FIG. 4))?
The value was “stimulation of proliferation”.

What about the “NC content in the bone marrow” value (CFU-S; IM 10 μg/kg) of the same substance?
The value was “no effect”.

And the “reconstitution of the CFU-S pool” value (CFU-S; IM 10 μg/kg (especially 1, 2, 3 times))?
Its value is “positively influenced the reconstitution of the CFU-S pool earlier, beginning from day 8”.

What about the “reconstitution of the CFU-S pool” value (CFU-S; i.v. 10 μg/kg 1, 3, or 4 times) of the same substance?
Its value is “helped better reconstitution of the CFU-S pool by day 14 only”.
